The values below are quoted from earlier work in patent US10045962B2 (priority 2014, dated 2018).

For one series, the system named is adrenergic receptors. The settings on record: in vitro tests; cited from earlier work.
The subject of another series is histaminergic receptors. The settings on record: in vitro tests; cited from earlier work.
The test system of series [1] is reuptake of norepinephrine. The settings on record: pre-clinical tests; cited from earlier work.
In the next series the test system is cholinergic receptors. The settings on record: in vitro tests; cited from earlier work.
For the next series, the system named is dopaminergic receptors. The settings on record: in vitro tests; cited from earlier work.
For the next series, the system named is reuptake of serotonin. The settings on record: pre-clinical tests; cited from earlier work.
Another series concerns reuptake of dopamine. The settings on record: pre-clinical tests; cited from earlier work.
For another series, the system named is monoamine oxidase. The settings on record: cited from earlier work.

With `CNCC[C@H](Oc1cccc2ccccc12)c1cccs1` [duloxetine], the “affinity to adrenergic receptors” value with adrenergic receptors is on record as “no significant affinity”. Further, the “affinity to histaminergic receptors” value in the series on histaminergic receptors is recorded as “no significant affinity”. The “block of reuptake of norepinephrine” value in series [1] is listed as “effectively block”. In the series on cholinergic receptors, the “affinity to cholinergic receptors” value is “no significant affinity”. Also, in the series on dopaminergic receptors, the “affinity to dopaminergic receptors” value is on record as “no significant affinity”. Besides, the “block of reuptake of serotonin” value in the series with reuptake of serotonin is “effectively block”. Also, the “block of reuptake of dopamine” value in the series with reuptake of dopamine is reported as “merely slightly block”. Also, in the series with monoamine oxidase, the “inhibition of monoamine oxidase” value is reported as “does not inhibit”.
